Assay results as given in ChEMBL document CHEMBL4130373, “Design, synthesis and biological evaluation of 4-anilinoquinoline derivatives as novel potent tubulin depolymerization agents” (Eur J Med Chem, 2017).
Structures can show the parent of a compound that is named as a salt. Calls of active or inactive are those of the source. The calls are words filed in the database; no cut-off is given here.

How the values were obtained:
[1] = Solubility of the compound in physiological saline at 1 mg; format: physicochemical; details: buffer
[2] = system: MDA-MB-231; assay: Antiproliferative activity against human MDA-MB-231 cells after 48 hrs by MTT assay; format: functional, cell-based; details: MDA-MB-231, 48 h
[3] = system: A2780S; assay: Cell cycle arrest in human A2780S cells assessed as accumulation at G2/M phase after 24 hrs by propidium iodide staining based flow cytometry; format: functional
[4] = system: NCI/ADR-RES; assay: Antiproliferative activity against human MCF7/ADR cells after 48 hrs by MTT assay; format: functional, cell-based
[5] = system: A2780S; assay: Cell cycle arrest in human A2780S cells assessed as accumulation at G2/M phase at 10 nM after 24 hrs by propidium iodide staining based flow cytometry (reference value: 15.34%); format: functional
[6] = Antiproliferative activity against human HCT8/T cells after 48 hrs by MTT assay; format: functional, cell-based; details: HCT-8, 48 h
[7] = system: A2780S; assay: Antiproliferative activity against human A2780S cells after 48 hrs by MTT assay; format: functional, cell-based
[8] = system: A2780S; assay: Cell cycle arrest in human A2780S cells assessed as accumulation at G2/M phase at 3 nM after 24 hrs by propidium iodide staining based flow cytometry (reference value: 15.34%); format: functional
[9] = system: HCT-116; assay: Antitumor activity against human HCT116 cells xenografted in Balb/c athymic nude mouse assessed as tumor growth inhibition at 2.5 mg/kg administered once in every 2 days measured on day 18 post treatment relative to control; format: functional; details: read-out: TGI
[10] = Antiproliferative activity against human HCT8/V cells after 48 hrs by MTT assay; format: functional, cell-based; details: HCT-8, 48 h
[11] = system: HEK293; assay: Antiproliferative activity against HEK293 cells after 48 hrs by MTT assay; format: cell-based; details: Homo sapiens, HEK293, 48 h
[12] = system: A2780S; assay: Cell cycle arrest in human A2780S cells assessed as accumulation at G0/G1 phase at 10 nM after 24 hrs by propidium iodide staining based flow cytometry (reference value: 44.3%); format: functional
[13] = Resistance index, ratio of IC50 for human A2780T cells to IC50 for human A2780S cells; format: functional
[14] = system: Mus musculus; assay: Toxicity in Balb/c athymic nude mouse xenografted with human HCT116 cells assessed as body weight loss at 2.5 mg/kg administered once in every 2 days relative to control; format: organism-based; details: in vivo, 48 h
[15] = system: HepG2; assay: Binding affinity to beta-tubulin colchicine binding site in human HepG2 cells assessed as reduction in EBI-beta-tubulin adduct formation preincubated for 2 hrs followed by EBI addition measured after 1.5 hrs by Western blot analysis; format: cell-based
[16] = system: Mus musculus; assay: Toxicity in Balb/c athymic nude mouse xenografted with human HCT116 cells assessed as effect on feeding behaviour at 2.5 mg/kg administered once in every 2 days; format: organism-based; details: in vivo, 48 h
[17] = system: A2780/Taxol; assay: Antiproliferative activity against human A2780T cells after 48 hrs by MTT assay; format: functional, cell-based
[18] = Resistance index, ratio of IC50 for human HCT8/T cells to IC50 for human HCT8 cells; format: functional
[19] = system: A2780S; assay: Cell cycle arrest in human A2780S cells assessed as accumulation at G0/G1 phase at 3 nM after 24 hrs by propidium iodide staining based flow cytometry (reference value: 44.3%); format: functional
[20] = system: HCT-116; assay: Antiproliferative activity against human HCT116 cells after 48 hrs by MTT assay; format: functional, cell-based; details: HCT-116, 48 h
[21] = system: A549; assay: Antiproliferative activity against human A549 cells after 48 hrs by MTT assay; format: functional, cell-based; details: A549, 48 h
[22] = system: MCF7; assay: Antiproliferative activity against human MCF7 cells after 48 hrs by MTT assay; format: functional, cell-based; details: MCF7, 48 h
[23] = system: A2780S; assay: Cell cycle arrest in human A2780S cells assessed as accumulation at S phase at 3 nM after 24 hrs by propidium iodide staining based flow cytometry (reference value: 40.36%); format: functional
[24] = system: Mus musculus; assay: Toxicity in Balb/c athymic nude mouse xenografted with human HCT116 cells assessed as abnormal behaviour at 2.5 mg/kg administered once in every 2 days; format: organism-based; details: in vivo, 48 h
[25] = system: A2780S; assay: Induction of alpha-tubulin depolymerization in human A2780S cells at 5 to 50 nM after 24 hrs by DAPI staining based immunofluorescence microscopic method; format: cell-based
[26] = Resistance index, ratio of IC50 for human MCF7/ADR cells to IC50 for human MCF7 cells; format: functional
[27] = system: HCT-8; assay: Antiproliferative activity against human HCT8 cells after 48 hrs by MTT assay; format: functional, cell-based; details: HCT-8, 48 h
[28] = system: L02; assay: Antiproliferative activity against human LO2 cells after 48 hrs by MTT assay; format: cell-based; details: L02, 48 h
[29] = system: A2780S; assay: Cell cycle arrest in human A2780S cells assessed as accumulation at G0/G1 phase at 30 nM after 24 hrs by propidium iodide staining based flow cytometry (reference value: 44.3%); format: functional
[30] = Resistance index, ratio of IC50 for human HCT8/V cells to IC50 for human HCT8 cells; format: functional
[31] = system: A2780S; assay: Cell cycle arrest in human A2780S cells assessed as accumulation at S phase at 30 nM after 24 hrs by propidium iodide staining based flow cytometry (reference value: 40.36%); format: functional
[32] = system: A2780S; assay: Cell cycle arrest in human A2780S cells assessed as accumulation at S phase at 10 nM after 24 hrs by propidium iodide staining based flow cytometry (reference value: 40.36%); format: functional
[33] = species on record: Sus scrofa; assay: Inhibition of porcine brain tubulin polymerization preincubated for 5 mins followed by GTP addition measured every 2 mins by spectrophotometric method
[34] = system: A2780S; assay: Cell cycle arrest in human A2780S cells assessed as accumulation at G2/M phase at 30 nM after 24 hrs by propidium iodide staining based flow cytometry (reference value: 15.34%); format: functional
[35] = system: Mus musculus; assay: Toxicity in Balb/c athymic nude mouse xenografted with human HCT116 cells assessed as body weight loss at 100 mg/kg, iv administered once in every 7 days relative to control; format: organism-based; details: in vivo, 168 h
[36] = system: HCT-116; assay: Antitumor activity against human HCT116 cells xenografted in Balb/c athymic nude mouse assessed as tumor growth inhibition at 100 mg/kg, iv administered once in every 7 days measured on day 18 post treatment relative to control; format: functional; details: HCT-116, iv, read-out: TGI
[37] = system: HepG2; assay: Binding affinity to beta-tubulin colchicine binding site in human HepG2 cells assessed as reduction in EBI-beta-tubulin adduct formation at 5 uM preincubated for 2 hrs followed by EBI addition measured after 1.5 hrs by Western blot analysis; format: cell-based
[38] = system: A2780S; assay: Induction of alpha-tubulin depolymerization in human A2780S cells at 100 nM after 24 hrs by DAPI staining based immunofluorescence microscopic method; format: cell-based

Compound: COc1ccc(N(C)c2cc(C)nc3ccccc23)cc1NC(=O)CN1CCSCC1
- solubility [1]: Soluble
- IC50 [2]: > 500 nM

Compound: COc1ccc(N(C)c2cc(C)nc3ccccc23)cc1NC(=O)CCCCl
- Activity [3]: Dose-dependent effect
- IC50 [4]: 3.3 nM
- Activity [5]: 74.62%
- IC50 [6]: 3.5 nM
- IC50 [7]: 2.2 nM
- Activity [8]: 39.48%
- inhibition in vivo at 2.5 mg/kg [9]: 54.3%
- IC50 [10]: 3.5 nM
- IC50 ([11]; read-out: IC50): 45.3 nM
- Activity [12]: 2.68%
- Ratio IC50 [13]: 1.7
- Activity [14]: < 10%
- Activity [15]: Dose-dependent effect
- solubility [1]: Soluble
- Activity [16]: Non-Toxic
- IC50 [17]: 3.7 nM
- Ratio IC50 [18]: 1
- IC50 [2]: 3.9 nM
- Activity [19]: 27.95%
- IC50 [20]: 2.7 nM
- IC50 [21]: 3.2 nM
- IC50 [22]: 1.5 nM
- Activity [23]: 32.57%
- Activity [24]: Non-Toxic
- Activity [25]: Active
- Ratio IC50 [26]: 2.3
- IC50 [27]: 3.4 nM
- IC50 [28]: 75.6 nM
- Activity [29]: 2.3%
- Ratio IC50 [30]: 1
- Activity [31]: 17.03%
- Activity [32]: 22.69%
- inhibition [33]: Dose-dependent effect
- Activity [34]: 80.67%

Compound: COc1ccc(N(C)c2cc(C)nc3ccccc23)cc1
- solubility [1]: Insoluble
- IC50 [2]: 6.6 nM

Compound: CCCCC(=O)Nc1cc(N(C)c2cc(C)nc3ccccc23)ccc1OC
- solubility [1]: Insoluble
- IC50 [2]: 82.4 nM

Compound: COc1ccc(N(C)c2cc(C)nc3ccccc23)cc1NC(=O)CN1CCOCC1
- solubility [1]: Insoluble
- IC50 [2]: 256 nM

Compound: CCCC(=O)Nc1cc(N(C)c2cc(C)nc3ccccc23)ccc1OC
- solubility [1]: Insoluble
- IC50 [2]: 58.4 nM

Compound: O=c1[nH]cc(F)c(=O)[nH]1 [FLUOROURACIL]
- Activity [35]: < 10%
- inhibition in vivo at 100 mg/kg [36]: 60.8%

Compound: COC(=O)CCCC(=O)Nc1cc(N(C)c2cc(C)nc3ccccc23)ccc1OC
- solubility [1]: Insoluble
- IC50 [2]: 186 nM

Compound: COc1ccc(N(C)c2cc(Cl)nc3ccccc23)cc1N
- solubility [1]: Insoluble
- IC50 [2]: 43.1 nM

Compound: COc1ccc(N(C)c2cc(C)nc3ccccc23)cc1NC(C)=O
- solubility [1]: Soluble
- IC50 [2]: 9.1 nM

Compound: COc1ccc(N(C)c2cc(C)nc3ccccc23)cc1NC(=O)CCCCCl
- solubility [1]: Insoluble
- IC50 [2]: 363 nM

Compound: COc1ccc(N(C)c2ccnc3ccccc23)cc1
- solubility [1]: Insoluble
- IC50 [2]: > 500 nM

Compound: COC(=O)C(=O)Nc1cc(N(C)c2cc(C)nc3ccccc23)ccc1OC
- solubility [1]: Insoluble
- IC50 [2]: > 500 nM

Compound: CSc1ccc(N(C)c2cc(C)nc3ccccc23)cc1
- solubility [1]: Soluble
- IC50 [2]: 15.5 nM

Compound: CC[C@]1(O)C[C@@H]2CN(CCc3c([nH]c4ccccc34)[C@@](C(=O)OC)(c3cc4c(cc3OC)N(C)[C@H]3[C@@](O)(C(=O)OC)[C@H](OC(C)=O)[C@]5(CC)C=CCN6CC[C@]43[C@@H]65)C2)C1 [VINBLASTINE]
- IC50 [10]: 2060 nM
- IC50 [27]: 20.2 nM
- Ratio IC50 [30]: 101.8

Compound: C=CC(=O)Nc1cc(N(C)c2cc(C)nc3ccccc23)ccc1OC
- solubility [1]: Soluble
- IC50 [2]: 43.4 nM

Compound: COc1ccc(N(C)c2cc(C)nc3ccccc23)cc1NC(=O)CNCCNc1ccccc1
- solubility [1]: Insoluble
- IC50 [2]: 83.6 nM

Compound: CSc1ccc(N(C)c2cc(C)nc3ccccc23)cc1N
- solubility [1]: Soluble
- IC50 [2]: 9.5 nM

Compound: COc1cccc2c1C(=O)c1c(O)c3c(c(O)c1C2=O)C[C@@](O)(C(=O)CO)C[C@@H]3O[C@H]1C[C@H](N)[C@H](O)[C@H](C)O1 [DOXORUBICIN HYDROCHLORIDE]
- IC50 [4]: 54800 nM

Compound: COc1ccc(N(C)c2cc(C)nc3ccccc23)cc1NC(=O)CCCl
- solubility [1]: Soluble
- IC50 [2]: 96.6 nM

Compound: CCC(=O)Nc1cc(N(C)c2cc(C)nc3ccccc23)ccc1OC
- solubility [1]: Soluble
- IC50 [2]: 18.5 nM

Compound: COc1ccc(N(C)c2cc(C)nc3ccccc23)cc1NC(=O)CN(C)CCC#N
- solubility [1]: Insoluble
- IC50 [2]: > 500 nM

Compound: COc1cc2c(c(OC)c1OC)-c1ccc(OC)c(=O)cc1[C@@H](NC(C)=O)CC2 [COLCHICINE]
- Activity [37]: Active
- IC50 [7]: 12.3 nM
- IC50 [11]: 10.2 nM
- IC50 [2]: 38.2 nM
- Activity [38]: Active
- IC50 [21]: 32.7 nM
- IC50 [22]: 13.4 nM
- IC50 [27]: 13.4 nM
- IC50 [28]: 26.5 nM

Compound: COc1ccc(N(C)c2cc(C)nc3ccccc23)cc1NC(=O)CCl
- solubility [1]: Soluble
- IC50 [2]: 6.6 nM

Compound: COc1ccc(N(C)c2ccnc3ccccc23)cc1N
- solubility [1]: Soluble
- IC50 [2]: > 500 nM

Compound: COc1ccc(N(C)c2cc(C)nc3ccccc23)cc1NC(=O)CN1CCCC(C)C1 (stereo unspecified)
- solubility [1]: Insoluble
- IC50 [2]: 394 nM

Compound: COc1ccc(N(C)c2cc(C)nc3ccccc23)cc1NC(=O)CBr
- solubility [1]: Soluble
- IC50 [2]: 87.2 nM

Compound: CCOC(=O)C(=O)Nc1cc(N(C)c2cc(C)nc3ccccc23)ccc1OC
- solubility [1]: Soluble
- IC50 [2]: 443 nM

Compound: COc1ccc(N(C)c2cc(Cl)nc3ccccc23)cc1
- solubility [1]: Insoluble
- IC50 [2]: > 500 nM

Compound: CC(=O)O[C@H]1C(=O)[C@@]2(C)[C@H]([C@H](OC(=O)c3ccccc3)[C@]3(O)C[C@H](OC(=O)[C@H](O)[C@@H](NC(=O)c4ccccc4)c4ccccc4)C(C)=C1C3(C)C)[C@]1(OC(C)=O)CO[C@@H]1C[C@@H]2O [PACLITAXEL]
- IC50 [6]: 9880 nM
- IC50 [7]: 12.3 nM
- Ratio IC50 [13]: 2042.3
- IC50 [17]: 25100 nM
- Ratio IC50 [18]: 567.4
- Activity [38]: inactive
- IC50 [27]: 17.4 nM

Compound: COc1ccc(N(C)c2cc(C)nc3ccccc23)cc1N
- solubility [1]: Insoluble
- IC50 [2]: 3.2 nM
